# Experimental data: PMC5177629, “Selective Estrogen Receptor Modulators: Cannabinoid Receptor Inverse Agonists with Differential CB1 and CB2 Selectivity” (Frontiers in Pharmacology, 2016)
# “Also recorded” adds a separate entry of the source. Marks after values point to notes of the source that are not given here.
# Legend:
# [1] = target: T1, human cannabinoid type-1 receptors (hCB1) (Homo sapiens, UniProt P21554); assay: [35S]GTPγS binding, CHO-hCB1 membranes; type: biochemical; settings: [35S]GTPγS binding, CHO-hCB1, compared with AM-251
# T1 construct: host or cells: CHO cells (CHO-hCB1), membranes or intact cells
# T1 sequence (P21554 whole entry): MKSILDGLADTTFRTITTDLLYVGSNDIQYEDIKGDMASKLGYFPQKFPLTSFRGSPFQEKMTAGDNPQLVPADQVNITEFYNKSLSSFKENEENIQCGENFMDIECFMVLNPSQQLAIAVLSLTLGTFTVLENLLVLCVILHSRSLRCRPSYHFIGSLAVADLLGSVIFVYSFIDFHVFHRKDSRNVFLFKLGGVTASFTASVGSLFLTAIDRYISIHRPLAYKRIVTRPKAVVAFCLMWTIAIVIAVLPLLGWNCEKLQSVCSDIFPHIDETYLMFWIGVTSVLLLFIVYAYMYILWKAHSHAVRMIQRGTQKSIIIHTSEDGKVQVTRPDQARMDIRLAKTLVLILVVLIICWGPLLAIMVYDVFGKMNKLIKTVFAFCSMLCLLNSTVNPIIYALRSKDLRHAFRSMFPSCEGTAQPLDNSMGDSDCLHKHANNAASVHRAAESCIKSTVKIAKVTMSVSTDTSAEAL
# Procedure: (§1) In short, pellets were thawed on ice, combined in a 40 ml glass Dounce homogenizer and homogenized in 20 ml of cold buffer (50 mM HEPES at pH 7.4, 3 mM MgCl2, and 1 mM EGTA) using 10 strokes. Homogenates were then centrifuged at 40,000 × g for 10 min at 4°C. After discarding the supernatant, pellets were homogenized and centrifuged twice more. Final pellets were re-suspended in ice-cold 50 mM HEPES, pH 7.4, aliquoted and stored at -80°C for future use. Protein concentration was determined the same day, prior to freezing, using BCA^TM Protein Assay (Thermo Fisher Scientific, Waltham, MA, USA).
# (§2) Non-specific binding was defined by radioactivity remaining in the presence of 10 μM of non-radioactive GTPγS. All reactions were incubated for 30 min at 30°C, terminated by filtration through Whatman GF/B glass fiber filters (Brandel, Inc.) and followed by four 4 ml washes of ice cold filtration buffer (50 mM HEPES, pH 7.4) containing 0.1% bovine serum albumin. Filter punches of individual samples were placed in scintillation vials containing 4 mls of ScintiverseTM BD cocktail scintillation fluid (Fisher Scientific, Pittsburg, PA, USA). Final counts were determined using liquid scintillation spectrophotometry (Tri Carb 2100 TR Liquid Scintillation Analyzer, Packard Instrument Company, Meriden, CT, USA) after overnight incubation.
# (§3) Statistical analyses were conducted by utilizing GraphPad Prism v6.0g (GraphPad Software, Inc.; San Diego, CA, USA). IC50 values from competition receptor binding curves were derived by non-linear regression. […] Non-linear regression analysis of concentration-effect curves was also used to determine potency (ED50 or IC50) and efficacy (Emax or Imax) for modulation of GTPγS and adenylyl cyclase activity, respectively. All IC50, EC50, Ki, and Kb values were converted to pEC50, pIC50, pKi, and pKb values in order to permit use of parametric statistical analyses. For all experiments comparing three or more values, an one-way ANOVA was employed, followed by Dunnett’s or Tukey’s post hoc tests. For comparisons of two values, an unpaired t-test was utilized. To determine significant radioligand displacement or modulation of G-protein activity compared to basal levels, a one-sample t-test was employed.
# (§4) CBRs are coupled to Gi/Go type G-proteins. Therefore, binding of agonists to CBRs leads to G-protein activation, antagonists produce no effect, and inverse agonists reduce basal G-protein activity produced by constitutively active receptors. SERMs were screened by examining the ability of a single receptor saturating concentration (10 μM) to modulate G-protein activity in membranes prepared from CHO-hCB1 and CHO-hCB2 cells. G-protein activation was quantified using employing [^35S]GTPγS, a non-hydrolyzable analog of GTP, that irreversibly binds to the G-proteins when activated.
# [2] = target: T1, human cannabinoid type-1 receptors (hCB1); assay: Competition receptor binding with [3H]CP-55,940, CHO-hCB1 membranes; settings: single 1 μM concentration, 0.2 nM [3H]CP-55,940, CHO-hCB1
# Procedure: as §1
# The final volume of each sample was 1 ml, containing 50 mM Tris-HCl buffer (pH 7.4), 0.05% bovine serum albumin, 5 mM MgCl2, increasing concentrations of non-radioactive competing SERM ligands, and either 100 μg of CHO-hCB1 or 50 μg of CHO-hCB2 membrane homogenates. […] Each sample condition was performed in triplicate and allowed to reach equilibrium at room temperature for 90 min. Reactions were terminated by rapid vacuum filtration through Whatman GF/B glass fiber filters (Brandel, Inc.), followed by four 4 ml washes of ice-cold filtration buffer (50 mM Tris at pH 7.4 and 0.05% BSA). Filter punches of individual samples were placed in scintillation vials containing 4 mls of ScintiverseTM BD cocktail scintillation fluid (Fisher Scientific, Pittsburg, PA, USA). Final counts were determined using liquid scintillation spectrophotometry (Tri Carb 2100 TR Liquid Scintillation Analyzer, Packard Instrument Company, Meriden, CT, USA) after overnight incubation.
# as §3
# (§5) For initial comparison of potential SERM binding to CBRs, 14 commercially available compounds from 5 structurally distinct classes (Figure 1) were subjected to a radioligand binding screen (Figure 2).
# [3] = target: T1, human cannabinoid type-1 receptors (hCB1); assay: Antagonism of CP-55,940 inhibition of adenylyl cyclase, intact CHO-hCB1 cells; type: cell-based
# Procedure: (§6) Briefly, cells cultured between passages 4 and 15 were seeded into 24-well plates at a concentration of 6.5 million cells per plate and incubated overnight in a humidified incubator maintained at 37°C and 5% CO2. Growth media was removed the next day and replaced with media containing […] [^3H]adenine, 0.9g/L NaCl, and 0.5 mM isobutyl-methyl-xanthine (IBMX) for 2–3 h. Radioactive media was then removed and each well treated with 0.5 ml of varying concentrations of SERM compounds in a Krebs-Ringer-HEPES solution (10 mM HEPES, 110 mM NaCl, 25 mM Glucose, 55 mM Sucrose, 5 mM KCl, 1 mM MgCl2, 1.8 mM CaCl2, pH 7.4) containing 0.5 mM IBMX and 10 μM forskolin. Plates were then floated in a 37°C water bath for 15 min before reactions were terminated by addition of 50 μL of 2.2 N HCl to each well.
# (§7) Reactions were then terminated by adding 50 μL of 2.2 N HCl to each well. [^3H]cAMP was isolated using alumina column chromatography and radioactivity quantified following addition of 10 mls of scintiverseTM BD cocktail scintillation fluid (Fisher Scientific, Pittsburg, PA, USA) by liquid scintillation spectrophotometry (Tri Carb 2100 TR Liquid Scintillation Analyzer, Packard Instrument Company, Meriden, CT, USA).
# as §3
# (§8) IC50 and Kb values were converted to pIC50 and pKb values (pIC50 = -Log[IC50] or pKb = -Log[Kb], respectively) to allow use of parametric statistics for comparison.
# [4] = target: T2, human cannabinoid type-2 receptors (hCB2) (Homo sapiens, UniProt P34972); assay: Adenylyl cyclase assay (forskolin-stimulated cAMP), intact CHO-hCB2 cells; type: cell-based
# T2 construct: expressed in transfected cells; host or cells: CHO cells (CHO-hCB2), membranes or intact cells
# T2 sequence (P34972 whole entry): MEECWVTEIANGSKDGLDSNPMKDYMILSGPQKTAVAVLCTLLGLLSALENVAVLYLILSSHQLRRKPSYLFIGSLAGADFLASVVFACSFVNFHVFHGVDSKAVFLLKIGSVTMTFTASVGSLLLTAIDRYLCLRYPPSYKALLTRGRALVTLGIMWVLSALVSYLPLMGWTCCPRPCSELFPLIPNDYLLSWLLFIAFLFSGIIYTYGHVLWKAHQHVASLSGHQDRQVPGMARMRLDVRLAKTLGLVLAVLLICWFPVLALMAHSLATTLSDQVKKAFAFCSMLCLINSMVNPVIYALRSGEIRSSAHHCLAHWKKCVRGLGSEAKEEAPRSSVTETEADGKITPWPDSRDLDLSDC
# Procedure: as §6, §3
# To provide a second measure of intrinsic activity, the ability of SERMs to modulate intracellular levels of cAMP in intact cells was examined (Figure 6). CBRs couple to Gi/Go-proteins, and thus cannabinoid agonists inhibit activity of the downstream intracellular effector adenylyl cyclase, reducing intracellular cAMP levels.
# [5] = target: T2, human cannabinoid type-2 receptors (hCB2); assay: Antagonism of CP-55,940 inhibition of adenylyl cyclase, intact CHO-hCB2 cells; type: cell-based
# Procedure: as §6, §7, §3, §8
# [6] = target: T2, human cannabinoid type-2 receptors (hCB2); assay: [35S]GTPγS binding, CHO-hCB2 membranes; type: biochemical; settings: for intrinsic activity at hCB2Rs (partial or full inverse agonist): [35S]GTPγS binding, CHO-hCB2, 10 μM, compared with AM-630
# Procedure: as §1, §2, §3, §4
# [7] = target: T2, human cannabinoid type-2 receptors (hCB2); assay: Competition receptor binding with [3H]CP-55,940, CHO-hCB2 membranes; settings: single 1 μM concentration, 0.2 nM [3H]CP-55,940, CHO-hCB2
# Procedure: as §1, with “Membrane homogenates were prepared for competition receptor binding and [^35S]GTPγS binding studies by using pellets previously frozen of CHO-hCB1 or CHO-hCB2 cells as described in ([Franks et al., 2014]). In” for “In”
# The final volume of each sample was 1 ml, containing 50 mM Tris-HCl buffer (pH 7.4), 0.05% bovine serum albumin, 5 mM MgCl2, increasing concentrations of non-radioactive competing SERM ligands, and either 100 μg of CHO-hCB1 or 50 μg of CHO-hCB2 membrane homogenates. Non-specific binding was defined by radioactivity remaining in the presence of 1 μM of the non-radioactive CB1/CB2 agonist WIN-55,212-2. Each sample condition was performed in triplicate and allowed to reach equilibrium at room temperature for 90 min. Reactions were terminated by rapid vacuum filtration through Whatman GF/B glass fiber filters (Brandel, Inc.), followed by four 4 ml washes of ice-cold filtration buffer (50 mM Tris at pH 7.4 and 0.05% BSA). Filter punches of individual samples were placed in scintillation vials containing 4 mls of ScintiverseTM BD cocktail scintillation fluid (Fisher Scientific, Pittsburg, PA, USA). Final counts were determined using liquid scintillation spectrophotometry (Tri Carb 2100 TR Liquid Scintillation Analyzer, Packard Instrument Company, Meriden, CT, USA) after overnight incubation.
# Statistical analyses were conducted by utilizing GraphPad Prism v6.0g (GraphPad Software, Inc.; San Diego, CA, USA). IC50 values from competition receptor binding curves were derived by non-linear regression. Experimental IC50 values were converted to Ki values (a measure of receptor affinity) by using the Cheng–Prusoff equation ([Cheng and Prusoff, 1973]). Non-linear regression analysis of concentration-effect curves was also used to determine potency (ED50 or IC50) and efficacy (Emax or Imax) for modulation of GTPγS and adenylyl cyclase activity, respectively. All IC50, EC50, Ki, and Kb values were converted to pEC50, pIC50, pKi, and pKb values in order to permit use of parametric statistical analyses. For all experiments comparing three or more values, an one-way ANOVA was employed, followed by Dunnett’s or Tukey’s post hoc tests. For comparisons of two values, an unpaired t-test was utilized. To determine significant radioligand displacement or modulation of G-protein activity compared to basal levels, a one-sample t-test was employed.
# as §5
compound,measurement,setting,value
4-hydroxy-tamoxifen [4OH-TX],intrinsic activity at CB1Rs (partial or full inverse agonist),[1],partial
same,"displacement of [3H]CP-55,940 from hCB1Rs",[2],approximately 50%
"CN(C)CCOc1ccc(/C(=C(/CCCl)c2ccccc2)c2ccc(O)cc2)cc1 [4OH-TOR, 4-hydroxy-toremifene]","displacement of [3H]CP-55,940 from hCB1Rs",[2],approximately 50%
Cc1c(C(=O)NN2CCOCC2)nn(-c2ccc(Cl)cc2Cl)c1-c1ccc(I)cc1 [AM-281],"fold decrease in potency of CP-55,940, CHO-hCB1",[3]; AM-281 1 μM pre-incubation,16 fold
same,"IMAX of CP-55,940 after pre-incubation with the drug","[3]; CHO-hCB1 cells, pre-incubation 30 min: OSP, NAF, BAZ 10 μM, RAL 2 μM, AM-281 1 μM",35.7 ± 0.9%
same,Kb,"[3]; calculated from shift of CP-55,940 curve, intact CHO-hCB1 cells, read-out: Kb (antagonist dissociation constant), CHO-hCB1",155 nM
same,"pKb, CHO-hCB1","[3]; intact CHO-hCB1 cells, mean ± SEM",6.810 ± 0.061^a
COc1ccc(C(=O)c2c(C)n(CCN3CCOCC3)c3cc(I)ccc23)cc1 [AM-630],"EMAX, Intracellular [3H]cAMP",[4]; elevation of cAMP,214 ± 6.5^b %
same,EC50,"[4]; increase of cAMP, 10 μM forskolin, read-out: EC50, Intracellular [3H]cAMP",398 nM
same,"pEC50, Intracellular [3H]cAMP",[4]; mean ± SEM,6.40 ± 0.096^c
same,"fold parallel shift-to-the-right of CP-55,940 concentration-effect curve, CHO-hCB2",[5]; AM-630 1 μM pre-incubation,33 fold
same,"IMAX of CP-55,940 after pre-incubation with the drug","[5]; CHO-hCB2 cells, pre-incubation 30 min: OSP, NAF 10 μM, RAL, BAZ 2 μM, AM-630 1 μM",31.7 ± 0.3%
same,Kb,"[5]; calculated from shift of CP-55,940 curve, intact CHO-hCB2 cells, read-out: Kb (antagonist dissociation constant), CHO-hCB2",55.4 nM
same,"pKb, CHO-hCB2","[5]; intact CHO-hCB2 cells, mean ± SEM",7.26 ± .064^b
same,"reduction of G-protein activity, hCB2Rs","[6]; CHO-hCB2 membranes, 10 μM",34%
"CC/C(=C(\c1ccc(O)cc1)c1ccc(OCCNC)cc1)c1ccccc1 [ENDX, endoxifen]","displacement of [3H]CP-55,940 from hCB1Rs",[2],approximately 50%
"Oc1ccc2c(c1)CC[C@H](c1ccccc1)[C@@H]2c1ccc(OCCN2CCCC2)cc1 [LAS, lasofoxifene]",intrinsic activity at hCB2Rs (partial or full inverse agonist),[6],partial inverse agonist activity
CC(C)N1CCN(c2ccc(C(=O)c3c(-c4ccc(O)cc4)sc4cc(O)ccc34)cc2)CC1 [Y-134],intrinsic activity at CB1Rs (partial or full inverse agonist),[1],partial
same,intrinsic activity at hCB2Rs (partial or full inverse agonist),[6],partial inverse agonist activity
CC1=C(c2ccc(O)cc2)[C@H](c2ccc(OCCN3CCCCC3)cc2)Oc2cc(O)ccc21 [acolbifene],"displacement of [3H]CP-55,940 from hCB1Rs",[2],fails to displace; also recorded: did not produce any displacement
same,"displacement of [3H]CP-55,940 from hCB2Rs",[7],fails to displace; also recorded: did not produce any displacement
